One experiment concerns the target T1, human ERα (Homo sapiens, UniProt P03372).
T1 construct: host or cells: Saccharomyces cerevisiae
T1 sequence (P03372 1-595): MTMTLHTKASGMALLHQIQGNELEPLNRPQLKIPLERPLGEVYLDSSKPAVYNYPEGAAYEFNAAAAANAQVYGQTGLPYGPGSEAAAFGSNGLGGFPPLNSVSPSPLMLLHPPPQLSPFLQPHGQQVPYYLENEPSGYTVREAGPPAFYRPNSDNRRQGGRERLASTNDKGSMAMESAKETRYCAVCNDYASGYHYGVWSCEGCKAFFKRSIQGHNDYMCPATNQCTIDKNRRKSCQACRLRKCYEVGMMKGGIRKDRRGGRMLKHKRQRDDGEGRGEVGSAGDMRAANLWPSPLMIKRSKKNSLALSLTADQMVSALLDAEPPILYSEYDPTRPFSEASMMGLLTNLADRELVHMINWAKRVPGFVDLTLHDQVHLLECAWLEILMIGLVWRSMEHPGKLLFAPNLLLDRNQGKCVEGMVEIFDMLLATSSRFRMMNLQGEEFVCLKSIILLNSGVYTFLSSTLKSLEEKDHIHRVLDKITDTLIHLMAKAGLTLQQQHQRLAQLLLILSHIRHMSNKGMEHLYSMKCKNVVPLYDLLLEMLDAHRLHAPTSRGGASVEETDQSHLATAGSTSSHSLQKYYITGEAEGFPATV
The experiment can be described thus: Yeast estrogen screen (YES) assay, antagonistic activity (β-galactosidase reporter). The following applies: compounds at 1 µM in presence of 0.5 nM/1 nM E2 (E2 set as 1); triplicates. It counts as cell-based, yeast (Saccharomyces cerevisiae). As to the method:
All synthesized compounds were tested for their relative activity in β-galactosidase in a yeast estrogen screen (YES) assay. Compounds were tested for their relative estrogenic/anti-estrogenic activities in comparison to positive and negative controls, respectively. YES assay is a gene reporter assay where the DNA sequence of human ERα is integrated into the yeast genome completed with an expression plasmid carrying estrogen response elements (ERE) in the promoter controlling the expression of the reporter gene lacZ (encoding the enzyme β-galactosidase). In the presence of estrogenic compounds, β-galactosidase is synthesized and secreted into the medium, where it converts the chromogenic substrate chlorophenol red-β-D-galactopyranoside (CRPG) from a yellow to a red product, whose absorbance is measured. […] Therefore, we decided to test the novel compounds in an organ-specific in vitro model using the human Ishikawa endometrial adenocarcinoma cell line.
The yeast estrogen receptor assay was supplied by Dr. J.P. Sumpter (Brunel University, Uxbridge, UK) and was used to determine the relative transactivation activity of the human ERα as formerly described. Briefly, Saccharomyces cerevisiae stably transfected with a human ERα and an estrogen-responsive element fused to the reporter gene lacZ encoding for β-galactosidase were treated with the test substances for about 48 h. The β-galactosidase enzymatic activity was measured in a colorimetric assay using a microplate photometer by hydrolysis of the substrate chlorophenol red β-D-galactopyranoside (Roche Diagnostics, Mannheim, Germany), which leads to the formation of chlorophenol red. This can be measured as an increased absorption at 540 nm. All compounds were diluted in DMSO. […] All compounds were tested in technical quadruplicates and biological triplicates. Statistical analysis was performed by analysis of variance (ANOVA) and Tukey’s post-hoc test with the significance level of p < 0.05.

The next experiment concerns 60 NCI tumor cell lines. As to the kind of experiment: NCI-60 single-dose growth inhibition screen (SRB). It counts as cell-based, human. The following applies: for inhibition at 10 µM: Homo sapiens, mean over 60 NCI tumor cell lines; for anti-proliferative activity (in words): 10 µM, NCI-60 panel and MCF-7. On the procedure:
The anti-proliferative effects of the novel analogs were tested in vitro by the National Cancer Institute (NCI) on a panel of 60 human tumor cell lines at 10 µM. Compounds that elicited mean growth inhibition ≥50% were selected by the NCI for 5-dose testing.
Compounds were submitted to the Developmental Therapeutics Program (DTP) of the National Cancer Institute (NCI). The program uses a panel of 60 human tumor cell lines representing nine tissue types, including leukemia, non-small cell lung cancer (NSCLC), melanoma, colon cancer, ovarian cancer, CNS cancer, renal cancer, prostate cancer, and breast cancer, to screen for potential new anti-cancer agents. […] Primary screening of synthesized compounds was performed by testing a single high dose of 10 µM in the full NCI-60 panel. The percent growth of treated cells relative to the no-drug control and relative to the time zero number of cells was measured, and a mean graph was provided. The percentage inhibition was then calculated by subtracting the values obtained from 100.
All compounds were subjected to the NCI in vitro disease-oriented human cells screening panel assay. The human tumor cell lines of the cancer-screening panel are grown in RPMI 1640 medium containing 5% fetal bovine serum and 2 mM L-glutamine. For a typical screening experiment, cells are inoculated into 96-well microtiter plates in 100 μL at plating densities ranging from 5000 to 40,000 cells/well depending on the doubling time of individual cell lines. After cell inoculation, the microtiter plates are incubated at 37 °C, 5% CO2, 95% air, and 100% relative humidity for 24 h prior to the addition of experimental drugs. After 24 h, two plates of each cell line are fixed in situ with TCA to represent a measurement of the cell population for each cell line at the time of drug addition. Experimental drugs are solubilized in dimethyl sulfoxide at 400-fold the desired final maximum test concentration and stored frozen prior to use. At the time of drug addition, an aliquot of frozen concentrate is thawed and diluted to twice the desired final maximum test concentration with complete medium containing 50 μg/mL gentamicin. Additional four, 10-fold, or ½ log serial dilutions are made to provide a total of five drug concentrations plus control. Aliquots of 100 μL of these different drug dilutions are added to the appropriate microtiter wells already containing 100 μL of medium, resulting in the required final drug concentrations. Following drug addition, the plates are incubated for an additional 48 h at 37 °C, 5% CO2, 95% air, and 100% relative humidity. For adherent cells, the assay is terminated by the addition of cold TCA. Cells are fixed in situ by the gentle addition of 50 μL of cold 50% (w/v) TCA (final concentration, 10% TCA) and incubated for 60 min at 4 °C. The supernatant is discarded, and the plates are washed five times with tap water and air-dried. Sulforhodamine B (SRB) solution (100 μL) at 0.4% (w/v) in 1% acetic acid is added to each well, and plates are incubated for 10 min at room temperature. After staining, unbound dye is removed by washing five times with 1% acetic acid, and the plates are air-dried. Bound stain is subsequently solubilized with a 10 mM trizma base, and the absorbance is read on an automated plate reader at a wavelength of 515 nm. For suspension cells, the methodology is the same except that the assay is terminated by fixing settled cells at the bottom of the wells by gently adding 50 μL of 80% TCA (final concentration, 16% TCA). Compounds are screened at a dose of 10 µM, hits showing mean growth inhibition over 60 cell lines >50% are escalated for 5-dose screening assay.

As for `COc1cc(C(C)=C(c2ccc(Cl)cc2)c2ccc(OCCN3CCCCCC3)cc2)ccc1F` [Compound 26, E/Z-1-(2-{4-[1-(4-Chlorophenyl)-2-(4-fluoro-3-methoxyphenyl)-propenyl]-phenoxy}-ethyl)-azepane], the “Anti-Estrogenic Activity (relative β-galactosidase activity)” value on human ERα is 1.05 ± 0.12. Moreover, in the experiment with 60 NCI tumor cell lines, testing at 10 µM gave an inhibition of 28.3%.

Take `COc1cc(C(C)=C(c2ccc(Cl)cc2)c2ccc(OCCN3CCOCC3)cc2)ccc1F` [Compound 25, E/Z-4-(2-{4-[1-(4-Chlorophenyl)-2-(4-fluoro-3-methoxyphenyl)-propenyl]-phenoxy}-ethyl)-morpholine]: the “Anti-Estrogenic Activity (relative β-galactosidase activity)” value at human ERα was 1.18 ± 0.03. In the experiment with 60 NCI tumor cell lines, the “anti-proliferative activity (in words)” value was “lacked anti-proliferative activity” and the inhibition (in general, the change of the read-out against control, counted positive when it falls) at 10 µM stood at 12.8%.

In the case of `CC(=C(c1ccc(Cl)cc1)c1ccc(OCCN2CCOCC2)cc1)c1ccccc1` [Compound 8, E/Z-4-(2-{4-[1-(4-Chloro-phenyl)-2-phenyl-propenyl]-phenoxy}-ethyl)-morpholine], the “Anti-Estrogenic Activity (relative β-galactosidase activity)” value on human ERα stood at 1.11 ± 0.26. In the experiment on 60 NCI tumor cell lines, the “anti-proliferative activity (in words)” value is on record as “lacked anti-proliferative activity” and the inhibition at 10 µM came to 9.4%.

For `CC(=C(c1ccc(Cl)cc1)c1ccc(OCCN2CCCCCC2)cc1)c1ccccc1` [Compound 9, E/Z-1-(2-{4-[1-(4-Chloro-phenyl)-2-phenyl-propenyl]-phenoxy}-ethyl)-azepane], the “Anti-Estrogenic Activity (relative β-galactosidase activity)” value at human ERα was determined as 1.99 ± 0.02. Moreover, the inhibition at 10 µM in the experiment on 60 NCI tumor cell lines stood at 25.4%.

As for `COc1ccc(C(C)=C(c2ccc(Cl)cc2)c2ccc(OCCCN(C)C)cc2)cc1` [Compound 10, E/Z-(3-{4-[1-(4-Chloro-phenyl)-2-(4-methoxy-phenyl)-propenyl]-phenoxy}-propyl)-dimethyl-amine], at human ERα, the “Anti-Estrogenic Activity (relative β-galactosidase activity)” value came to 3.92 ± 0.58. Testing at 10 µM in the experiment with 60 NCI tumor cell lines gave an inhibition of 33.4%.

As to `CCN(CC)CCOc1ccc(C(=C(C)c2ccc(F)c(OC)c2)c2ccc(Cl)cc2)cc1` [Compound 28, E/Z-(2-{4-[1-(4-Chlorophenyl)-2-(4-fluoro-3-methoxyphenyl)-propenyl]-phenoxy}-ethyl)-diethyl-amine], the “Anti-Estrogenic Activity (relative β-galactosidase activity)” value at human ERα turned out to be 0.86 ± 0.07. The compound also came in with an inhibition at 10 µM in the experiment with 60 NCI tumor cell lines of 92.3%.

With `COc1ccc(C(C)=C(c2ccc(Cl)cc2)c2ccc(OCCN3CCCCCC3)cc2)cc1` [Compound 14, E/Z-1-(2-{4-[1-(4-Chloro-phenyl)-2-(4-methoxy-phenyl)-propenyl]-phenoxy}-ethyl)-azepane], the “Anti-Estrogenic Activity (relative β-galactosidase activity)” value at human ERα is reported as 1.53 ± 0.09. Moreover, in the experiment with 60 NCI tumor cell lines, testing at 10 µM gave an inhibition of 47.3%.

`COc1ccc(C(C)=C(c2ccc(Cl)cc2)c2ccc(OCCN3CCCCC3)cc2)cc1` [Compound 12, E/Z-1-(2-{4-[1-(4-Chloro-phenyl)-2-(4-methoxy-phenyl)-propenyl]-phenoxy}-ethyl)-piperidine]: on human ERα, the “Anti-Estrogenic Activity (relative β-galactosidase activity)” value is recorded as 2.55 ± 0.41. The same compound registered an inhibition at 10 µM in the experiment with 60 NCI tumor cell lines of 55.2%.

Turning to `COc1cc(C(C)=C(c2ccc(Cl)cc2)c2ccc(OCCN3CCCC3)cc2)ccc1F` [Compound 23, E/Z-1-(2-{4-[1-(4-Chlorophenyl)-2-(4-fluoro-3-methoxyphenyl)-propenyl]-phenoxy}-ethyl)-pyrrolidine], the “Anti-Estrogenic Activity (relative β-galactosidase activity)” value at human ERα turned out to be 1.06 ± 0.05. In addition, in the experiment with 60 NCI tumor cell lines, at 10 µM the inhibition was 46.9%.

Values taken from paper PMC8621172, “Manipulating Estrogenic/Anti-Estrogenic Activity of Triphenylethylenes towards Development of Novel Anti-Neoplastic SERMs” (International Journal of Molecular Sciences, 2021).
